Experimental data taken from PMC10905675, “INX-315, a Selective CDK2 Inhibitor, Induces Cell Cycle Arrest and Senescence in Solid Tumors” (Cancer Discovery, 2023).

Columns and labels:
Assay in all cases: SelectScreen LanthaScreen Binding
Settings in all cases: INX-0315 at 100nM
AAK1 = biological target: T1, AAK1 (Homo sapiens, UniProt Q2M2I8)
T1 construct: purchased Thermo Fisher Scientific SelectScreen (plus Nanosyn / Reaction Biology for CDK/cyclin lines)
Description: (§1) INX-315 was first evaluated in the SelectScreen Biochemical Kinase Profiling at Thermo Fisher Scientific (Madison, WI). The primary screen consisted of INX-315 dosed at a single concentration of 100 nmol/L in 1% DMSO across each platform within the SelectScreen array of assays, LanthaScreen Eu Kinase Binding Assay; AdaptaScreen; and Z'LyteScreen using preestablished conditions at Thermo Fisher Scientific as shown in Supplementary Table S2. […] The follow-up screen consisted of 10-point dose–response curves for INX-315 from 1 µmol/L to 0.0495 nmol/L.

ALK R1275Q = biological target: T2, ALK R1275Q (Homo sapiens, UniProt Q9UM73, R1275Q)
T2 construct: purchased Thermo Fisher Scientific SelectScreen (plus Nanosyn / Reaction Biology for CDK/cyclin lines)
Description: as §1

BRAF = biological target: T3, BRAF (Homo sapiens, UniProt P15056)
T3 construct: purchased Thermo Fisher Scientific SelectScreen (plus Nanosyn / Reaction Biology for CDK/cyclin lines)
Description: as §1

BRAF V599E = biological target: T4, BRAF V599E (Homo sapiens, UniProt P15056, V600E)
T4 construct: purchased Thermo Fisher Scientific SelectScreen (plus Nanosyn / Reaction Biology for CDK/cyclin lines)
Description: as §1

BRSK2 = biological target: T5, BRSK2 (Homo sapiens, UniProt Q8IWQ3)
T5 construct: purchased Thermo Fisher Scientific SelectScreen (plus Nanosyn / Reaction Biology for CDK/cyclin lines)
Description: as §1

CAMK2G (CaMKII gamma) = biological target: T6, CAMK2G (CaMKII gamma) (Homo sapiens, UniProt Q13555)
T6 construct: purchased Thermo Fisher Scientific SelectScreen (plus Nanosyn / Reaction Biology for CDK/cyclin lines)
Description: as §1

CAMKK2 (CaMKK beta) = biological target: T7, CAMKK2 (CaMKK beta) (Homo sapiens, UniProt Q96RR4)
T7 construct: purchased Thermo Fisher Scientific SelectScreen (plus Nanosyn / Reaction Biology for CDK/cyclin lines)
Description: as §1

CDK11 (Inactive) = biological target: T8, CDK11 (Inactive) (Homo sapiens, UniProt Q9BWU1)
T8 construct: purchased Thermo Fisher Scientific SelectScreen (plus Nanosyn / Reaction Biology for CDK/cyclin lines)
T8 sequence (Q9BWU1 whole entry): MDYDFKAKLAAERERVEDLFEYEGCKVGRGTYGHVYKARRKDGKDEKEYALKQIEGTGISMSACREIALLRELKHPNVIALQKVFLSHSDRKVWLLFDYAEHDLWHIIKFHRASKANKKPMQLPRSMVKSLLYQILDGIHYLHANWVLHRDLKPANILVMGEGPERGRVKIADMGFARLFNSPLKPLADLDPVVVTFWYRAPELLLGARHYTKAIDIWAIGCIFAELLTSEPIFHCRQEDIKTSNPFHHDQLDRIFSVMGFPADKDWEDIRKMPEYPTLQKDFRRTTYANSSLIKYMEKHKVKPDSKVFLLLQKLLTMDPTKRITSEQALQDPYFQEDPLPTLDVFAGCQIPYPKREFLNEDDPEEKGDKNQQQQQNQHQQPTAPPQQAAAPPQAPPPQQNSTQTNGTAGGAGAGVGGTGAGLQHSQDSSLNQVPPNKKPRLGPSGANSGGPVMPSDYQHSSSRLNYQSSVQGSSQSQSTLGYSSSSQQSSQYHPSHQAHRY
Description: as §1

CDK11/cyclin C = biological target: T9, CDK11/cyclin C (Homo sapiens, UniProt Q9BWU1)
T9 construct: purchased Thermo Fisher Scientific SelectScreen (plus Nanosyn / Reaction Biology for CDK/cyclin lines)
Description: as §1

CDK13/cyclin K = biological target: T10, CDK13/cyclin K (Homo sapiens, UniProt Q14004)
T10 construct: purchased Thermo Fisher Scientific SelectScreen (plus Nanosyn / Reaction Biology for CDK/cyclin lines)
Description: as §1

CDK2/cyclin E1 = biological target: T11, CDK2/cyclin E1 (Homo sapiens, UniProt P24941)
T11 construct: purchased Millipore 14-475
Description: as §1

CDK2/cyclin O = biological target: T12, CDK2/cyclin O (Homo sapiens, UniProt P24941)
T12 construct: purchased Thermo Fisher Scientific SelectScreen (plus Nanosyn / Reaction Biology for CDK/cyclin lines)
Description: as §1

CDK3/cyclin E1 = biological target: T13, CDK3/cyclin E1 (Homo sapiens, UniProt Q00526)
T13 construct: purchased BPS 40103
Description: as §1

CDK8/cyclin C = biological target: T14, CDK8/cyclin C (Homo sapiens, UniProt P49336)
T14 construct: purchased Thermo Fisher Scientific SelectScreen (plus Nanosyn / Reaction Biology for CDK/cyclin lines)
Description: as §1

DDR2 N456S = biological target: T15, DDR2 N456S (Homo sapiens, UniProt Q16832, N456S)
T15 construct: purchased Thermo Fisher Scientific SelectScreen (plus Nanosyn / Reaction Biology for CDK/cyclin lines)
Description: as §1

DDR2 T654M = biological target: T16, DDR2 T654M (Homo sapiens, UniProt Q16832, T654M)
T16 construct: purchased Thermo Fisher Scientific SelectScreen (plus Nanosyn / Reaction Biology for CDK/cyclin lines)
Description: as §1

FGFR1 V561M = biological target: T17, FGFR1 V561M (Homo sapiens, UniProt P11362, V561M)
T17 construct: purchased Thermo Fisher Scientific SelectScreen (plus Nanosyn / Reaction Biology for CDK/cyclin lines)
Description: as §1

FGFR3 K650M = biological target: T18, FGFR3 K650M (Homo sapiens, UniProt P22607, K650M)
T18 construct: purchased Thermo Fisher Scientific SelectScreen (plus Nanosyn / Reaction Biology for CDK/cyclin lines)
Description: as §1

GRK1 = biological target: T19, GRK1 (Homo sapiens, UniProt Q15835)
T19 construct: purchased Thermo Fisher Scientific SelectScreen (plus Nanosyn / Reaction Biology for CDK/cyclin lines)
Description: as §1

HUNK = biological target: T20, HUNK (Homo sapiens, UniProt P57058)
T20 construct: purchased Thermo Fisher Scientific SelectScreen (plus Nanosyn / Reaction Biology for CDK/cyclin lines)
Description: as §1

KIT T670E = biological target: T21, KIT T670E (Homo sapiens, UniProt P10721, T670E)
T21 construct: purchased Thermo Fisher Scientific SelectScreen (plus Nanosyn / Reaction Biology for CDK/cyclin lines)
T21 sequence (P10721 26-976 T670E): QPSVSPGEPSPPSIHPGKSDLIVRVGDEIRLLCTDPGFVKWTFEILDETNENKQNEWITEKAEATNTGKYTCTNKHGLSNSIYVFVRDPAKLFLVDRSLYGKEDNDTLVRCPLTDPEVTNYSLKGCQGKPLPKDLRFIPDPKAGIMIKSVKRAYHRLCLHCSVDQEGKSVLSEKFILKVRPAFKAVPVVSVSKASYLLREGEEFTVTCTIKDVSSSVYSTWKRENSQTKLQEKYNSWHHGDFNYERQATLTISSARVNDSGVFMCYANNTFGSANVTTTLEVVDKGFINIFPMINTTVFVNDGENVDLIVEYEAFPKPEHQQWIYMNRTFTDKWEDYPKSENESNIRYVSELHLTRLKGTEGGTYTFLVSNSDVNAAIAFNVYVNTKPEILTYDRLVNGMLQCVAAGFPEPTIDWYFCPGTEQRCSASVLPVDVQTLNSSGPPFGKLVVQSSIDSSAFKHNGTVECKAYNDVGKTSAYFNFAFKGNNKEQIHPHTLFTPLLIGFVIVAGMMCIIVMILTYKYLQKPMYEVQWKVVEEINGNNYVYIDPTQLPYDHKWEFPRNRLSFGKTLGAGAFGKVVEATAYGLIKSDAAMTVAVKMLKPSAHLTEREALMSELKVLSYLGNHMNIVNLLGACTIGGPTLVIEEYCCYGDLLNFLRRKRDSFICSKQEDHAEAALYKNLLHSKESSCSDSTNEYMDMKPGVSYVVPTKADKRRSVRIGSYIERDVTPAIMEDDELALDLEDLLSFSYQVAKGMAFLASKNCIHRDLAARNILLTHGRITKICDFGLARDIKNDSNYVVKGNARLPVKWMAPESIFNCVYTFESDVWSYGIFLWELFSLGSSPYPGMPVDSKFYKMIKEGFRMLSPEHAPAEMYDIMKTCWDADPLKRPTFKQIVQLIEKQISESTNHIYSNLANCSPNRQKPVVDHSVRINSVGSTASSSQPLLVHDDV
Description: as §1

KIT V559D T670I = biological target: T22, KIT V559D T670I (Homo sapiens, UniProt P10721, T670I/V559D)
T22 construct: purchased Thermo Fisher Scientific SelectScreen (plus Nanosyn / Reaction Biology for CDK/cyclin lines)
Description: as §1

MAP2K1 (MEK1) = biological target: T23, MAP2K1 (MEK1) (Homo sapiens, UniProt Q02750)
T23 construct: purchased Thermo Fisher Scientific SelectScreen (plus Nanosyn / Reaction Biology for CDK/cyclin lines)
T23 sequence (Q02750 whole entry): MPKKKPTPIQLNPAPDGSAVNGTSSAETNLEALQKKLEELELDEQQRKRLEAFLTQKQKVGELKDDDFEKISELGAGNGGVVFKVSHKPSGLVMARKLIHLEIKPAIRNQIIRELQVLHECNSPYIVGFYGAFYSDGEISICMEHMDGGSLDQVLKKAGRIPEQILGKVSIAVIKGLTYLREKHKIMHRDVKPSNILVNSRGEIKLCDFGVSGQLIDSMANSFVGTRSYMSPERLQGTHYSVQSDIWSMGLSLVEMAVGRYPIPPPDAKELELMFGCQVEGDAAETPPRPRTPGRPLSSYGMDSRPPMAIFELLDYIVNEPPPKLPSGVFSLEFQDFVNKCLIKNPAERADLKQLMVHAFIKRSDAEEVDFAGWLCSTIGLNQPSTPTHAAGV
Description: as §1

[1] = biological target: T24, MAP2K1 (MEK1) S218D S222D (Homo sapiens, UniProt Q02750, S218D/S222D)
T24 construct: purchased Thermo Fisher Scientific SelectScreen (plus Nanosyn / Reaction Biology for CDK/cyclin lines)
Description: as §1

MAPK8 (JNK1) = biological target: T25, MAPK8 (JNK1) (Homo sapiens, UniProt P45983)
T25 construct: purchased Thermo Fisher Scientific SelectScreen (plus Nanosyn / Reaction Biology for CDK/cyclin lines)
T25 sequence (P45983 whole entry): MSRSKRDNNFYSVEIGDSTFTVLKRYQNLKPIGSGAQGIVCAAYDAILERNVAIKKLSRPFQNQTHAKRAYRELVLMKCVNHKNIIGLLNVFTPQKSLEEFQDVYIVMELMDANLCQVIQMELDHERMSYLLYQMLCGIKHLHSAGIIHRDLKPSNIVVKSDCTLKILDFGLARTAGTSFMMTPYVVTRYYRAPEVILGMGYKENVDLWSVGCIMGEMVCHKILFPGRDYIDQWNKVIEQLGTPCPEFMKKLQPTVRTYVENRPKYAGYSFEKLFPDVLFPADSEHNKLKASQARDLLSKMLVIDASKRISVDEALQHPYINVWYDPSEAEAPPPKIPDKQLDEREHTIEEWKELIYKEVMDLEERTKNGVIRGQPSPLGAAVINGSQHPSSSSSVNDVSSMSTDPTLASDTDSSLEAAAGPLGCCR
Description: as §1

MERTK (cMER) A708S = biological target: T26, MERTK (cMER) A708S (Homo sapiens, UniProt Q12866, A708S)
T26 construct: purchased Thermo Fisher Scientific SelectScreen (plus Nanosyn / Reaction Biology for CDK/cyclin lines)
Description: as §1

MKNK2 (MNK2) = biological target: T27, MKNK2 (MNK2) (Homo sapiens, UniProt Q9HBH9)
T27 construct: purchased Thermo Fisher Scientific SelectScreen (plus Nanosyn / Reaction Biology for CDK/cyclin lines)
T27 sequence (Q9HBH9 whole entry): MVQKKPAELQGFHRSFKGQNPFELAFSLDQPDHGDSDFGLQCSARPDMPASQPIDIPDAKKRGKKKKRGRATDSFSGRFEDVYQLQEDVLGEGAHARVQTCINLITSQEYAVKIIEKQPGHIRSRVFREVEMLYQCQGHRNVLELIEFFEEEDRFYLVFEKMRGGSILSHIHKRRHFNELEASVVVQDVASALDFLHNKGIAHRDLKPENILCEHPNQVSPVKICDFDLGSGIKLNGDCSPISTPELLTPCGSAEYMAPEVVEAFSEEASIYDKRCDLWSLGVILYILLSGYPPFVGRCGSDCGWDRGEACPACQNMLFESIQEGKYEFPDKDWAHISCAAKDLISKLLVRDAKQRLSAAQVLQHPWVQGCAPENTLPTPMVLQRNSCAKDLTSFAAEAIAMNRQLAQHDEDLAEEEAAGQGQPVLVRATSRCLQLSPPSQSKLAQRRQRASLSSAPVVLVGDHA
Description: as §1

MYLK (MLCK) = biological target: T28, MYLK (MLCK) (Homo sapiens, UniProt Q15746)
T28 construct: purchased Thermo Fisher Scientific SelectScreen (plus Nanosyn / Reaction Biology for CDK/cyclin lines)
Description: as §1

MYO3A (MYO3 alpha) = biological target: T29, MYO3A (MYO3 alpha) (Homo sapiens, UniProt Q8NEV4)
T29 construct: purchased Thermo Fisher Scientific SelectScreen (plus Nanosyn / Reaction Biology for CDK/cyclin lines)
Description: as §1

RET M918T = biological target: T30, RET M918T (Homo sapiens, UniProt P07949, M918T)
T30 construct: purchased Thermo Fisher Scientific SelectScreen (plus Nanosyn / Reaction Biology for CDK/cyclin lines)
T30 sequence (P07949 29-1114 M918T): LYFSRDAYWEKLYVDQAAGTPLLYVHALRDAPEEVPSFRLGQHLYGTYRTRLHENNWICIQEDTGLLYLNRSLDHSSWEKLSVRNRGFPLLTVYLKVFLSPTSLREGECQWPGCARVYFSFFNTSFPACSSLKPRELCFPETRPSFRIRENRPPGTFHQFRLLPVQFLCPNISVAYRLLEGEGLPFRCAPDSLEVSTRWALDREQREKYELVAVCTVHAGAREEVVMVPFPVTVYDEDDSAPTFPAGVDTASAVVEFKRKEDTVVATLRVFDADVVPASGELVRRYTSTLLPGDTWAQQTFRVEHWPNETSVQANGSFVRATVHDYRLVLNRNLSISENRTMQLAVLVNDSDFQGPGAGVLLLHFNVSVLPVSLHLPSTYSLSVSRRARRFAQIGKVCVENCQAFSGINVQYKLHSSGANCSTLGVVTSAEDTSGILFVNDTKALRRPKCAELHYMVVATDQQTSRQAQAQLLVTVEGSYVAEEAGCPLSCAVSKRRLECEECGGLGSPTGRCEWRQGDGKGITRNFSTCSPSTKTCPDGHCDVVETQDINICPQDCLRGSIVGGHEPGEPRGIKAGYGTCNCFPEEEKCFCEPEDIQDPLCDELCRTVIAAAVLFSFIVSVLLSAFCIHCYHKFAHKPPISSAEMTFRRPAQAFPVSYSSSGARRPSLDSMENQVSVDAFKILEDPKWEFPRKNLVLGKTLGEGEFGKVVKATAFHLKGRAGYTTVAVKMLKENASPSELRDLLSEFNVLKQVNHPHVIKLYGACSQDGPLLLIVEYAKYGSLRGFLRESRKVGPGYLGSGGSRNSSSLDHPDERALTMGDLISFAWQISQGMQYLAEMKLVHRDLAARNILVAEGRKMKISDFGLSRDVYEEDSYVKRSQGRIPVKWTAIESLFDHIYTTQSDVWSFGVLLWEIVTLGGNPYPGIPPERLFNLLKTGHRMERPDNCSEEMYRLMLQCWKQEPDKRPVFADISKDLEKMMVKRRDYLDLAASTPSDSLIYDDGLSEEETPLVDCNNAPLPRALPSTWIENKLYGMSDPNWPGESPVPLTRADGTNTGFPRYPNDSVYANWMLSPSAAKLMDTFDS
Description: as §1

SLK = biological target: T31, SLK (Homo sapiens, UniProt Q9H2G2)
T31 construct: purchased Thermo Fisher Scientific SelectScreen (plus Nanosyn / Reaction Biology for CDK/cyclin lines)
T31 sequence (Q9H2G2 whole entry): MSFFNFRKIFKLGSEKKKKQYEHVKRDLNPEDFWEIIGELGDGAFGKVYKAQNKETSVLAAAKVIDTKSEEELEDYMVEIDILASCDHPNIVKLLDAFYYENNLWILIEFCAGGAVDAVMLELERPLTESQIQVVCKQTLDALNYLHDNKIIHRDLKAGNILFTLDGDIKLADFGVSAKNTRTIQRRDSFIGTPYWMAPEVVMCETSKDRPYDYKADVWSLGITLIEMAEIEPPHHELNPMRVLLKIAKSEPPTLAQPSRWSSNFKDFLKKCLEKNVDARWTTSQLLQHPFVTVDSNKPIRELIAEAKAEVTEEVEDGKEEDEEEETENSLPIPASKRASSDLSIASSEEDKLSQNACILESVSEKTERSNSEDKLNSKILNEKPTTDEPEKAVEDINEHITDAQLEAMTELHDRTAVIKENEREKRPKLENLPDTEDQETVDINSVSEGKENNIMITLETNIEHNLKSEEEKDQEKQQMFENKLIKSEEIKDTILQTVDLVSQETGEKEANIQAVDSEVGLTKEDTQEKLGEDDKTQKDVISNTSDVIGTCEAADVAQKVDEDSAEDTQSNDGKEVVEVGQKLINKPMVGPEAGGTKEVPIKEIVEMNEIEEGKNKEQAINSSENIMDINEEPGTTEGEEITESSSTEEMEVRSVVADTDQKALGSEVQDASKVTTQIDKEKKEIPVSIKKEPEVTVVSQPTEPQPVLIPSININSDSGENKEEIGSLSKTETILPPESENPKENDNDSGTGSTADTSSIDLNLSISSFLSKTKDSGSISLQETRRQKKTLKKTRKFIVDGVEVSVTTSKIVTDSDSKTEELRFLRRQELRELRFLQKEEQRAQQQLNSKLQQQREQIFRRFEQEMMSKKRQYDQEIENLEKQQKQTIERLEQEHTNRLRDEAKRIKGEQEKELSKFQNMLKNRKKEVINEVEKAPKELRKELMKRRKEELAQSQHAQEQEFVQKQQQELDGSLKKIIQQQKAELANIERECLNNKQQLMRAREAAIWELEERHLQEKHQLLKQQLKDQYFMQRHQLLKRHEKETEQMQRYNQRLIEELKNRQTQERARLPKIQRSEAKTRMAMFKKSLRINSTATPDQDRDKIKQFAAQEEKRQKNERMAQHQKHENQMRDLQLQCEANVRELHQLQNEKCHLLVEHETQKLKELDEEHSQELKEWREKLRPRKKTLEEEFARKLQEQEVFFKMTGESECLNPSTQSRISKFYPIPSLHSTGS
Description: as §1

TEK (TIE2) R849W = biological target: T32, TEK (TIE2) R849W (Homo sapiens, UniProt Q02763, R849W)
T32 construct: purchased Thermo Fisher Scientific SelectScreen (plus Nanosyn / Reaction Biology for CDK/cyclin lines)
Description: as §1

TESK2 = biological target: T33, TESK2 (Homo sapiens, UniProt Q96S53)
T33 construct: purchased Thermo Fisher Scientific SelectScreen (plus Nanosyn / Reaction Biology for CDK/cyclin lines)
Description: as §1

TLK1 = biological target: T34, TLK1 (Homo sapiens, UniProt Q9UKI8)
T34 construct: purchased Thermo Fisher Scientific SelectScreen (plus Nanosyn / Reaction Biology for CDK/cyclin lines)
Description: as §1

WEE1 = biological target: T35, WEE1 (Homo sapiens, UniProt P30291)
T35 construct: purchased Thermo Fisher Scientific SelectScreen (plus Nanosyn / Reaction Biology for CDK/cyclin lines)
Description: as §1

WNK3 = biological target: T36, WNK3 (Homo sapiens, UniProt Q9BYP7)
T36 construct: purchased Thermo Fisher Scientific SelectScreen (plus Nanosyn / Reaction Biology for CDK/cyclin lines)
Description: as §1

ZAK = biological target: T37, ZAK (Homo sapiens, UniProt Q9NYL2)
T37 construct: purchased Thermo Fisher Scientific SelectScreen (plus Nanosyn / Reaction Biology for CDK/cyclin lines)
Description: as §1

## NS(=O)(=O)c1ccc(Nc2ncc3cc4n(c3n2)C2(CCCCC2)C(=O)NN4)cc1 [INX-315]
AAK1
  inhibition at 0.1 µM: 77%
ALK R1275Q
  inhibition at 0.1 µM: 10%
BRAF
  inhibition at 0.1 µM: -1%
BRAF V599E
  inhibition at 0.1 µM: -2%
BRSK2
  inhibition at 0.1 µM: 4%
CAMK2G (CaMKII gamma)
  inhibition at 0.1 µM: -1%
CAMKK2 (CaMKK beta)
  inhibition at 0.1 µM: 3%
CDK11 (Inactive)
  inhibition at 0.1 µM: 2%
CDK11/cyclin C
  inhibition at 0.1 µM: 1%
CDK13/cyclin K
  inhibition at 0.1 µM: 39%
CDK2/cyclin E1
  inhibition at 0.1 µM: 98%
CDK2/cyclin O
  inhibition at 0.1 µM: 98%
CDK3/cyclin E1
  inhibition at 0.1 µM: 88%
CDK8/cyclin C
  inhibition at 0.1 µM: 0%
DDR2 N456S
  inhibition at 0.1 µM: 14%
DDR2 T654M
  inhibition at 0.1 µM: 26%
FGFR1 V561M
  inhibition at 0.1 µM: 12%
FGFR3 K650M
  inhibition at 0.1 µM: 14%
GRK1
  inhibition at 0.1 µM: 27%
HUNK
  inhibition at 0.1 µM: -5%
KIT T670E
  inhibition at 0.1 µM: 9%
KIT V559D T670I
  inhibition at 0.1 µM: 16%
MAP2K1 (MEK1)
  inhibition at 0.1 µM: 5%
[1]
  inhibition at 0.1 µM: 1%
MAPK8 (JNK1)
  inhibition at 0.1 µM: 18%
MERTK (cMER) A708S
  inhibition at 0.1 µM: 14%
MKNK2 (MNK2)
  inhibition at 0.1 µM: 2%
MYLK (MLCK)
  inhibition at 0.1 µM: 6%
MYO3A (MYO3 alpha)
  inhibition at 0.1 µM: 6%
RET M918T
  inhibition at 0.1 µM: 42%
SLK
  inhibition at 0.1 µM: 22%
TEK (TIE2) R849W
  inhibition at 0.1 µM: 7%
TESK2
  inhibition at 0.1 µM: -1%
TLK1
  inhibition at 0.1 µM: 0%
WEE1
  inhibition at 0.1 µM: 4%
WNK3
  inhibition at 0.1 µM: 2%
ZAK
  inhibition at 0.1 µM: 3%
